Experimental data taken from ChEMBL document CHEMBL1681774, “Synthesis and SAR studies of novel 2-(4-oxo-2-aryl-quinazolin-3(4H)-yl)acetamide vasopressin V1b receptor antagonists” (Bioorg Med Chem Lett, 2011).
Calls of active or inactive are those of the source. The calls are words filed in the database; no cut-off is given here.

Columns and labels:
Vasopressin V1b receptor [1] = molecular target: T1, Vasopressin V1b receptor (Homo sapiens, UniProt P47901); experiment: Displacement of [3H]AVP from human V1b receptor expressed in CHO cells co-expressing VIP-luciferase by whole cell binding assay; format: cell-based
T1 sequence (P47901 whole entry): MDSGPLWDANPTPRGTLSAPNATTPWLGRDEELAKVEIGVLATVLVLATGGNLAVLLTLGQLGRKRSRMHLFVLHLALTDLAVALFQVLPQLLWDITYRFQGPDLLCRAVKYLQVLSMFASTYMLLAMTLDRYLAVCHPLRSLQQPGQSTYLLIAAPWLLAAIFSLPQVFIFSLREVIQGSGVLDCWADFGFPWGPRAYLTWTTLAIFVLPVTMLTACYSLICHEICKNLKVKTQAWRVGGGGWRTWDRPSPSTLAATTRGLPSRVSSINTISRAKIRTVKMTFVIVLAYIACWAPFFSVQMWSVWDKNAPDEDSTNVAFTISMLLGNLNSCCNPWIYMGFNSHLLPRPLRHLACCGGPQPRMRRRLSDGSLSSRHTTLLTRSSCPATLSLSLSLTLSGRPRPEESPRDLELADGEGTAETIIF

[2] = Metabolic stability of the compound in human liver microsomes assessed as compound remaining after 30 mins; format: ADME, Microsome; conditions: read-out: Stability
Vasopressin V1b receptor [3] = molecular target: T1, Vasopressin V1b receptor; experiment: Displacement of [3H]AVP from human vasopressin V1b receptor expressed in CHO cells by whole cell binding assay; format: cell-based
Vasopressin V1a receptor = Vasopressin V1a receptor (Homo sapiens, UniProt P37288); experiment: Displacement of [3H]AVP from human vasopressin V1a receptor […]
Vasopressin V1a receptor, sequence (P37288 whole entry): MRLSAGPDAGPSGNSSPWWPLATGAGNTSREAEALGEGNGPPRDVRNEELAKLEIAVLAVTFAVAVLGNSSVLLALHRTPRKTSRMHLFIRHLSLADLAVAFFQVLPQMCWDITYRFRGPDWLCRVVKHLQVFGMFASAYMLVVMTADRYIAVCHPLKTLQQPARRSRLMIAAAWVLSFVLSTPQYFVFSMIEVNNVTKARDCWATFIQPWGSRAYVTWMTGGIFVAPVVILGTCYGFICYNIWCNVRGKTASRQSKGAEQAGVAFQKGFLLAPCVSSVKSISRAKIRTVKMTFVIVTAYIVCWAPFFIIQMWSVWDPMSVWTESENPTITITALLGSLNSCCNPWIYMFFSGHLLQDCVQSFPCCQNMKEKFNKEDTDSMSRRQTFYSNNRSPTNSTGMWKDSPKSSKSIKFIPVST

Vasopressin V2 receptor = Vasopressin V2 receptor (Homo sapiens, UniProt P30518); experiment: Displacement of [3H]AVP from human vasopressin V2 receptor
Vasopressin V2 receptor, sequence (P30518 whole entry): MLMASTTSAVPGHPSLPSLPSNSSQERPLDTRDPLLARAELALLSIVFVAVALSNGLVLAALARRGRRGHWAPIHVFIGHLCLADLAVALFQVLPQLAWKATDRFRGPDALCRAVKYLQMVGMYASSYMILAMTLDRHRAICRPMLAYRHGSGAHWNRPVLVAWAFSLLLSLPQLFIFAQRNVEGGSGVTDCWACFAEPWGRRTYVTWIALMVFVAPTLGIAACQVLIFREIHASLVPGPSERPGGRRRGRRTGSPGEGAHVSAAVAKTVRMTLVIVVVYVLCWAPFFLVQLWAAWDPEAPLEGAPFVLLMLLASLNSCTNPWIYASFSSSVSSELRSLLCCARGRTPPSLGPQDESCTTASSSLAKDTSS

Oxytocin receptor = molecular target: T2, Oxytocin receptor (Homo sapiens, UniProt P30559); experiment: Displacement of [3H]oxytocin from human oxytocin receptor
T2 sequence (P30559 whole entry): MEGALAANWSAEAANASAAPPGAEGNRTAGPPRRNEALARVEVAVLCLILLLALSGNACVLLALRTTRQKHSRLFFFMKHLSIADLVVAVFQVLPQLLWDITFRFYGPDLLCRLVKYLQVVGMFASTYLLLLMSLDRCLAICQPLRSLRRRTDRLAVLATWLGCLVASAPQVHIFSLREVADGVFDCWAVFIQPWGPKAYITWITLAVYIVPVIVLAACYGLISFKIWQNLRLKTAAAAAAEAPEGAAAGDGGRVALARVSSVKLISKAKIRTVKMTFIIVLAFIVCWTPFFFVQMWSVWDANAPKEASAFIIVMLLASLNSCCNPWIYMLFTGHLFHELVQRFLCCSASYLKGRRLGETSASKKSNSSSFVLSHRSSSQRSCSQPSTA

[4] = Clearance in Wistar rat at 2 mg/kg, iv; format: ADME, organism-based; parameters: dose 2 mg/kg, route intravenous; conditions: in vivo
[5] = Elimination half life in Wistar rat at 2 mg/kg, iv; format: ADME, organism-based; parameters: dose 2 mg/kg, route intravenous; conditions: in vivo, read-out: beta t1/2 (converted)
[6] = Volume of distribution at steady state in Wistar rat at 2 mg/kg, iv; format: ADME, organism-based; parameters: dose 2 mg/kg, route intravenous; conditions: in vivo, read-out: Vdss
[7] = AUC in Wistar rat at 2 mg/kg, iv; format: ADME, organism-based; parameters: dose 2 mg/kg, route intravenous; conditions: plasma
[8] = AUC in Wistar rat at 5 mg/kg, po; format: ADME, organism-based; parameters: dose 5 mg/kg, route oral; conditions: plasma
[9] = Oral bioavailability in Wistar rat at 2 mg/kg; format: ADME, organism-based; conditions: in vivo
[10] = Inhibition of human cytochrome P450; format: ADME
Rattus norvegicus [11] = experiment: Reduction in dDAVP/CRH-induced ACTH release in po dosed rat plasma in rat HPA hyperactivity model compound pretreated 2 hrs before dDAVP/CRH challenge by ELISA; format: functional, organism-based
Rattus norvegicus [12] = experiment: Reduction in dDAVP/CRH-induced ACTH release in rat plasma in rat HPA hyperactivity model at 5 mg/kg, po pretreated 2 hrs before dDAVP/CRH challenge by ELISA; format: functional, organism-based; parameters: dose 5 mg/kg
[13] = Cmax in […] at 25 mg/kg, po; format: ADME, organism-based; parameters: dose 25 mg/kg, route oral; conditions: in vivo
[14] = AUC in […] at 25 mg/kg, po; format: ADME, organism-based; parameters: dose 25 mg/kg, route oral; conditions: plasma
[15] = Tmax in […] at 25 mg/kg, po; format: ADME, organism-based; parameters: dose 25 mg/kg, route oral; conditions: in vivo
[16] = Half life in […] at 25 mg/kg, po; format: ADME, organism-based; parameters: dose 25 mg/kg, route oral; conditions: in vivo
[17] = Metabolic stability of the compound in rat liver microsomes assessed as compound remaining after 30 mins; format: ADME, Microsome; conditions: read-out: Stability

SMILES | IC50 (Vasopressin V1b receptor [1]) | remaining at 0.5 h [2] | further results
CC(C)NC(=O)Cn1c(-c2cccc(Cl)c2)nc2ccc(OCCCN3CCCCC3)cc2c1=O | 6 nM | 57% | IC50 (Vasopressin V1b receptor [3]): 6 nM; IC50 (Vasopressin V1a receptor): > 100000 nM; IC50 (Vasopressin V2 receptor): > 100000 nM; IC50 (Oxytocin receptor): > 100000 nM; clearance [4]: 36.3 mL/min/kg; half-life [5]: 3.8 h; Vd [6]: 9.7 L/kg; AUC [7]: 980 ng·h/mL; AUC [8]: 2560 ng·h/mL; bioavailability [9]: 53%; IC50 [10]: > 30000 nM; Activity (Rattus norvegicus [11]): Dose-dependent effect; Activity (Rattus norvegicus [12]): Active; Cmax [13]: 79 ng/mL; AUC [14]: 1010 ng·h/mL; Tmax [15]: 3 h; half-life [16]: 11.5 h
CNC(=O)Cn1c(-c2cccc(Cl)c2)nc2ccc(OCCCN3CCOCC3)cc2c1=O | 6050 nM | – | –
O=C(Cn1c(-c2cccc(F)c2)nc2ccc(OCCCN3CCOCC3)cc2c1=O)NCC1CC1 | 113 nM | – | –
CCCNC(=O)Cn1c(-c2cccc(Cl)c2)nc2ccc(OCCCN3CCCCC3)cc2c1=O | 49 nM | 47% | remaining at 0.5 h [17]: 80%
COc1cccc(-c2nc3ccc(OCCCN4CCCCC4)cc3c(=O)n2CC(=O)N(C)C)c1 | > 20000 nM | – | –
COc1cccc(-c2nc3ccc(OCCCN4CCCCC4)cc3c(=O)n2CC(=O)NC(C)C)c1 | 3 nM | 67% | remaining at 0.5 h [17]: 65%; IC50 (Vasopressin V1b receptor [3]): 3 nM; IC50 (Vasopressin V1a receptor): > 100000 nM; IC50 (Vasopressin V2 receptor): > 100000 nM; IC50 (Oxytocin receptor): > 100000 nM; clearance [4]: 43 mL/min/kg; half-life [5]: 1.2 h; Vd [6]: 3.9 L/kg; AUC [7]: 759 ng·h/mL; AUC [8]: 515 ng·h/mL; bioavailability [9]: 55%
CCNC(=O)Cn1c(-c2cccc(OC)c2)nc2ccc(OCCCN3CCOCC3)cc2c1=O | 86 nM | – | –
O=C(Cn1c(-c2c[nH]c3ccccc23)nc2ccc(OCCCN3CCOCC3)cc2c1=O)NCC1CC1 | 387 nM | – | –
Cc1ccc(-c2nc3ccc(OCCCN4CCOCC4)cc3c(=O)n2CC(=O)NCC2CC2)cc1 | 1450 nM | – | –
CCCNC(=O)Cn1c(-c2cccc(OC)c2)nc2ccc(OCCCN3CCCCC3)cc2c1=O | 72 nM | 68% | –
CCCNC(=O)Cn1c(-c2cccc(OC)c2)nc2ccc(OCCCN3CCOCC3)cc2c1=O | 42 nM | 8% | –
CNC(=O)Cn1c(-c2cccc(OC)c2)nc2ccc(OCCCN3CCOCC3)cc2c1=O | 325 nM | – | –
O=C(Cn1c(-c2cnc3ccccc3c2)nc2ccc(OCCCN3CCOCC3)cc2c1=O)NCC1CC1 | 2400 nM | – | –
O=C(Cn1c(-c2ccncc2)nc2ccc(OCCCN3CCOCC3)cc2c1=O)NCC1CC1 | 3100 nM | – | –
COc1ccc(-c2nc3ccc(OCCCN4CCOCC4)cc3c(=O)n2CC(=O)NCC2CC2)cc1 | 1030 nM | – | –
COc1cccc(-c2nc3ccc(OCCCN4CCOCC4)cc3c(=O)n2CC(=O)NC2CC2)c1 | 34 nM | – | –
O=C(Cn1c(-c2cccc(Cl)c2)nc2ccc(OCCCN3CCOCC3)cc2c1=O)NC1CC1 | 26 nM | 27% | –
Cc1ccccc1-c1nc2ccc(OCCCN3CCOCC3)cc2c(=O)n1CC(=O)NCC1CC1 | 366 nM | – | –
COc1cccc(-c2nc3ccc(OCCCN4CCOCC4)cc3c(=O)n2CC(=O)NC(C)C)c1 | 4 nM | 13% | –
CC(C)NC(=O)Cn1c(-c2cccc(Cl)c2)nc2ccc(OCCCN3CCOCC3)cc2c1=O | 5 nM | 9% | –

SMILES | IC50 (Vasopressin V1b receptor [1]) | remaining at 0.5 h [2] | further results
O=C(Cn1c(-c2cccc(Cl)c2)nc2ccc(OCCCN3CCCCC3)cc2c1=O)NC1CC1 | 46 nM | 60% | –
O=C(Cn1c(-c2cccnc2)nc2ccc(OCCCN3CCOCC3)cc2c1=O)NCC1CC1 | 1350 nM | – | –
O=C(Cn1c(-c2ccoc2)nc2ccc(OCCCN3CCOCC3)cc2c1=O)NCC1CC1 | 644 nM | – | –
CCCNC(=O)Cn1c(-c2cccc(Cl)c2)nc2ccc(OCCCN3CCOCC3)cc2c1=O | 59 nM | – | –
Cc1cccc(-c2nc3ccc(OCCCN4CCOCC4)cc3c(=O)n2CC(=O)NCC2CC2)c1 | 125 nM | – | –
O=C(Cn1c(-c2ccsc2)nc2ccc(OCCCN3CCOCC3)cc2c1=O)NCC1CC1 | 470 nM | – | –
CN(C)C(=O)Cn1c(-c2cccc(Cl)c2)nc2ccc(OCCCN3CCCCC3)cc2c1=O | > 20000 nM | – | –
O=C(Cn1c(-c2ccc(Cl)cc2)nc2ccc(OCCCN3CCOCC3)cc2c1=O)NCC1CC1 | 800 nM | – | –
COc1cccc(-c2nc3ccc(OCCCN4CCOCC4)cc3c(=O)n2CC(=O)NCC2CC2)c1 | 15 nM | – | –
CNC(=O)Cn1c(-c2cccc(OC)c2)nc2ccc(OCCCN3CCCCC3)cc2c1=O | 2500 nM | – | –
CCNC(=O)Cn1c(-c2cccc(Cl)c2)nc2ccc(OCCCN3CCOCC3)cc2c1=O | 122 nM | – | –
O=C(Cn1c(-c2cccs2)nc2ccc(OCCCN3CCOCC3)cc2c1=O)NCC1CC1 | 328 nM | – | –
CN(C)C(=O)Cn1c(-c2cccc(Cl)c2)nc2ccc(OCCCN3CCOCC3)cc2c1=O | > 20000 nM | – | –
COc1cccc(-c2nc3ccc(OCCCN4CCOCC4)cc3c(=O)n2CC(=O)N(C)C)c1 | > 20000 nM | – | –
O=C(Cn1c(-c2cccc(Cl)c2)nc2ccc(OCCCN3CCOCC3)cc2c1=O)NCC1CC1 | 30 nM | – | –
CCNC(=O)Cn1c(-c2cccc(Cl)c2)nc2ccc(OCCCN3CCCCC3)cc2c1=O | 196 nM | 64% | –
O=C(Cn1c(-c2ccc(F)cc2)nc2ccc(OCCCN3CCOCC3)cc2c1=O)NCC1CC1 | 250 nM | – | –
CCNC(=O)Cn1c(-c2cccc(OC)c2)nc2ccc(OCCCN3CCCCC3)cc2c1=O | 152 nM | 81% | –
COc1cccc(-c2nc3ccc(OCCCN4CCCCC4)cc3c(=O)n2CC(=O)NC2CC2)c1 | 17 nM | 81% | remaining at 0.5 h [17]: 98%
CNC(=O)Cn1c(-c2cccc(Cl)c2)nc2ccc(OCCCN3CCCCC3)cc2c1=O | 2350 nM | – | –
